In PubChem BioAssay (NCI):
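Five compound concentrations were applied to cells in 96-well plates for 48 hours; endpoints were derived by simple linear interpolation of the resulting dose-response curve. Abbreviation: GI50, concentration required for 50% inhibition of growth. TGI: total growth inhibition.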

Key:
Test in all cases: inhibition of tumour cell growth, NCI panel, 48 h
A498 renal = system: A498 renal
SF-268 CNS = system: SF-268 CNS
SK-MEL-5 melanoma = system: SK-MEL-5 melanoma
HOP-92 NSCLC = system: HOP-92 NSCLC
MOLT-4 leukemia = system: MOLT-4 leukemia
MALME-3M melanoma = system: MALME-3M melanoma
EKVX NSCLC = system: EKVX NSCLC
SK-OV-3 ovarian = system: SK-OV-3 ovarian
SNB-75 CNS = system: SNB-75 CNS
IGROV1 ovarian = system: IGROV1 ovarian
HCT-15 colon = system: HCT-15 colon
HOP-62 NSCLC = system: HOP-62 NSCLC
OVCAR-5 ovarian = system: OVCAR-5 ovarian
OVCAR-4 ovarian = system: OVCAR-4 ovarian

Row | Structure (SMILES) | GI50 (A498 renal) [µM] | TGI (A498 renal) [µM] | TGI (SF-268 CNS) [µM] | TGI (SK-MEL-5 melanoma) [µM] | TGI (HOP-92 NSCLC) [µM] | TGI (MOLT-4 leukemia) [µM] | TGI (MALME-3M melanoma) [µM] | TGI (EKVX NSCLC) [µM] | TGI (SK-OV-3 ovarian) [µM] | TGI (SNB-75 CNS) [µM] | TGI (IGROV1 ovarian) [µM] | TGI (HCT-15 colon) [µM] | TGI (HOP-62 NSCLC) [µM] | TGI (OVCAR-5 ovarian) [µM] | TGI (OVCAR-4 ovarian) [µM] | GI50 (SK-MEL-5 melanoma) [µM] | GI50 (HOP-92 NSCLC) [µM] | GI50 (MALME-3M melanoma) [µM]
1 | CCOC(=O)c1c2c(n(Cc3ccccc3)c1C)C(=O)C(=O)c1ccccc1-2 | 2.84 | 5.67 | 1.27 | 0.742 | 3.17 | 1.8 | 0.191 | 1.74 | 5.76 | 2.69 | > 100 | 2.58 | 0.536 | – | – | – | – | –
2 | CCCOC(=O)CNC(=O)OC(C)(C)C | – | – | > 100 | > 100 | > 100 | – | > 100 | > 100 | > 100 | > 100 | > 100 | > 100 | > 100 | > 100 | > 100 | – | – | –
3 | N=C1C(=N)c2ccccc2-c2ccccc21.N=C1C(=N)c2ccccc2-c2ccccc21.N=C1C(=N)c2ccccc2-c2ccccc21.[Cl-].[Ru+2] | – | – | 3.28 | 3.71 | 3.09 | 5.46 | 3.29 | 3.41 | 6.91 | 4.25 | 5.01 | – | 8.97 | 18.6 | 2.85 | 1.91 | 1.6 | 1.79
4 | O=P1(c2ccccc2)Nc2ccccc2SSc2ccccc2N1 | – | 41.2 | 34 | 31.6 | 30.7 | 49.9 | 36.9 | 33.4 | 44.4 | 39.4 | 38.2 | 35.8 | – | 36.1 | 33.6 | – | – | –
5 | Cc1cccc2c1Sc1ccccc1C2NC(=O)CCN(C)C (stereo not given) | – | – | > 100 | > 100 | – | > 100 | – | > 100 | > 100 | > 100 | > 100 | > 100 | > 100 | > 100 | > 100 | – | – | –
6 | CCc1nc(N)nc(N)c1-c1ccc([N+](C)(C)C)cc1 | – | > 100 | > 100 | > 100 | > 100 | > 100 | – | > 100 | > 100 | > 100 | > 100 | > 100 | > 100 | > 100 | > 100 | – | – | –
7 | COc1ccc(/C(Cl)=C(\C=O)c2ccc(OC)cc2)cc1 | – | > 100 | > 100 | > 100 | – | > 100 | > 100 | > 100 | > 100 | > 100 | > 100 | > 100 | > 100 | > 100 | > 100 | – | – | –
8 | COc1ccc(C2=C3SC=c4ccccc4=C3ON=C2c2ccccc2)cc1 | – | > 100 | > 100 | > 100 | > 100 | > 100 | > 100 | > 100 | – | – | > 100 | > 100 | > 100 | > 100 | > 100 | – | – | –
9 | CC(=O)NNc1nc(-c2ccc([N+](=O)[O-])cc2)c(C#N)c(=O)n1C | – | 75.5 | > 100 | > 100 | 33.3 | > 100 | > 100 | > 100 | > 100 | 54.9 | 35 | > 100 | 52.5 | 77 | 52.7 | – | – | –
10 | CN(C)C(=O)/C=C/c1c[nH]c(=O)[nH]c1=O | – | > 500 | > 500 | > 500 | > 500 | > 500 | > 500 | > 281 | > 280 | > 500 | > 500 | > 500 | > 500 | > 500 | > 500 | – | – | –
